{
  "source": "patent US20240417406A1",
  "about": "“NITROGEN-CONTAINING TRICYCLIC COMPOUND AND PHARMACEUTICAL USE THEREOF” (JAPAN TOBACCO INC., priority 2021, published 2024)",
  "data": [
    {"target": "human PDHK2 (hPDHK2) (Homo sapiens (Human), UniProt Q15119)", "test": "Inhibitory action of PDHK2 activity (PDH/hPDHK2 complex, residual PDH activity by NADH absorbance at 340 nm)", "type": "biochemical", "conditions": "FLAG-tagged recombinant hPDHK2 with porcine heart PDH complex; PDHK reaction 45 min at room temperature", "description": "(§1) In the case of human PDHK2 (hPDHK2, NCBI Reference Database Accession number NM_002611.4), modified hPDHK2 cDNA wherein FLAG-Tag sequence was added to the N terminal of hPDHK2 cDNA clone (pReceiver-M01/PDK2-GeneCopoeia) as the base was prepared by polymerase chain reaction (PCR) and ligated to the NdeI/EcoRI site of pET-17b vector (Merck KGaA, Catalog Number 69663-3). The recombinant construct was transformed into Escherichia coli DH5a. The recombinant clones were identified, and plasmid DNA was isolated and subjected to the DNA sequence analysis. One clone which had the expected nucleic acid sequence was selected for expression work.\n(§2) For expression of hPDHK2 activity, Escherichia coli strain BL21(DE3) cells (Merck KGaA, Catalog Number 69450-4) were transformed with the pET17b vector containing modified hPDHK2 cDNA. The Escherichia coli were grown to an optical density 0.6 ([…]) at 30° C. Protein expression was induced by the addition of 500 μmol/L isopropyl-β-thiogalactopyranoside. The Escherichia coli were cultured at 20° C. for 17 to for 18 hr and harvested by centrifugation. The harvested Escherichia coli was resuspended in a suspension buffer (20 mmol/L HEPES-NaOH, 500 mmol/L sodium chloride, 1% ethylene glycol, 0.1% Pluronic (registered trademark) F-68 (pH 8.0), cOmplete, EDTA-free (Roche) (pH 8.0)), and disrupted by a microfluidizer M-110H (MIZUHO INDUSTRIAL CO., LTD.). The precipitate was removed by centrifugation and the supernatant was added to DDDDK-tagged Protein PURIFICATION GEL (MEDICAL & BIOLOGICAL LABORATORIES CO., LTD., Code No. 3329). DDDDK-tagged Protein PURIFICATION GEL was washed with a washing buffer (20 mmol/L HEPES-NaOH, 500 mmol/L sodium chloride, 1% ethylene glycol, 0.1% Pluronic F-68 (pH 8.0)) and the bound protein was eluted with elution buffer 1 (20 mmol/L HEPES-NaOH, 100 μg/mL peptide (amino acid sequence DYKDDDDK) (SEQ ID NO: 1), 500 mmol/L sodium chloride, 1% ethylene glycol, 0.1% Pluronic F-68 (pH 8.0)). The eluted fractions containing FLAG-Tagged protein were pooled, concentrated by an ultrafiltration method, added to a gel filtration column (HiLoad 26/60 Superdex 200 (GE Healthcare Life Sciences, Code No. 17-1070-01)), and eluted with elution buffer 2 (20 mmol/L HEPES-NaOH, 150 mmol/L sodium chloride, 0.5 mmol/L ethylenediaminetetraacetic acid (EDTA), 1% ethylene glycol, 0.1% Pluronic F-68 (pH 8.0)). The eluted fractions were pooled and preserved at −80° C.\n(§3) PDH (porcine heart PDH complex, Sigma P7032) and 0.5 μg/mL hPDHK2 were mixed in an assay buffer (50 mmol/L 3-morpholinopropanesulfonic acid (pH 7.0), 20 mmol/L dipotassium hydrogen phosphate, 60 mmol/L potassium chloride, 2 mmol/L magnesium chloride, 0.4 mmol/L EDTA, 0.2% poloxamer, 2 mmol/L dithiothreitol) so that the final concentration of PDH was 0.025 U/mL, and the mixture was incubated at 4° C. overnight to obtain a PDH/hPDHK2 complex solution.\n(§4) PDH was mixed with the assay buffer so that the final concentration was 0.025 U/mL, and the mixture was incubated at 4° C. overnight to prepare a PDH solution.\n(§5) The test compounds were diluted with DMSO. […] DMSO (1.5 μL) was added to control wells instead of test compound. In addition, DMSO (1.5 μL) was added to blank wells instead of the test compound, and PDH solution was added instead of the PDH/hPDHK2 complex solution. To measure an inhibitory action of the test compound on the PDHK activity inherent in the PDH solution, a test compound was added and the PDH solution instead of the PDH/hPDHK2 complex solution was added to a blank+test compound well.\n(§6) Then, 10 μL of substrates (5 mmol/L sodium pyruvate, 5 mmol/L Coenzyme A, 12 mmol/L NAD, 5 mmol/L thiamine pyrophosphate, diluted with assay buffer) were added. The mixture was incubated at room temperature for 90 min, and the residual PDH activity was measured.\n(§7) The absorbance of each well at 340 nm was measured using a microplate reader to detect NADH produced by the PDH reaction. […]", "units": {"IC50": "nM"}, "values": [
      {"smiles": "C[C@H]1Cc2c(cnn2CC(C)(C)O)-c2onc([C@@](C)(O)C(F)(F)F)c21", "note": "(racemic) [Example 39]", "IC50": 14.4},
      {"smiles": "C[C@H]1Cc2c(cnn2C2CC(C#N)C2)-c2onc([C@@](C)(O)C(F)(F)F)c21", "note": "(stereo in doubt) [Example 29]", "IC50": 23.6},
      {"smiles": "C[C@H]1Cn2nc(N3CC4CC(C3)C4(F)F)cc2-c2cnc([C@@](C)(O)C(F)(F)F)n21", "note": "[Example 79]", "IC50": 35.2},
      {"smiles": "COC(=O)C12CCC(c3cc4n(n3)C[C@H](C)c3c-4cnnc3[C@@](C)(O)C(F)(F)F)(CC1)CC2", "note": "(racemic) [Example 102, methyl 4-[(R)-5-methyl-4-((R)-1,1,1-trifluoro-2-hydroxypropan-2-yl)-5,6-dihydropyrazolo[1′,5′:1,2]pyrido[3,4-d]pyridazin-9-yl]bicyclo[2.2.2]octane-1-carboxylate and methyl 4-[(S)-5-methyl-4-((S)-1,1,1-trifluoro-2-hydroxypropan-2-yl)-5,6-dihydropyrazolo[1′,5′:1,2]pyrido[3,4-d]pyridazin-9-yl]bicyclo[2.2.2]octane-1-carboxylate]", "IC50": "> 100"},
      {"smiles": "C[C@H]1Cn2nc(N3CC4C(C3)C4(F)F)cc2-c2cnc([C@@](C)(O)C(F)(F)F)n21", "note": "(stereo partly drawn) [Example 78]", "IC50": 15.1},
      {"smiles": "C[C@H]1Cn2nc(C34CCC(C#N)(CC3)CO4)cc2-c2cnc([C@@](C)(O)C(F)(F)F)n21", "note": "[Example 93, 1-((S)-5-methyl-3-((R)-1,1,1-trifluoro-2-hydroxypropan-2-yl)-5,6-dihydroimidazo[1,5-a]pyrazolo[5,1-c]pyrazin-9-yl)-2-oxabicyclo[2.2.2]octane-4-carbonitrile]", "IC50": 33.4},
      {"smiles": "C[C@H]1Cn2nc(N3C[C@H]4C[C@@H]3CO4)cc2-c2cnc([C@@](C)(O)C(F)(F)F)n21", "note": "[Example 82]", "IC50": 34},
      {"smiles": "C[C@H]1Cn2nc(O[C@H]3C[C@](C)(C#N)C3)cc2-c2onc([C@@](C)(O)C(F)(F)F)c21", "note": "(racemic) [Example 47]", "IC50": 25.8},
      {"smiles": "C[C@H]1Cn2nc(C34CCC(CO)(CC3)CO4)cc2-c2cnc([C@@](C)(O)C(F)(F)F)n21", "note": "[Example 94]", "IC50": 49.5},
      {"smiles": "C[C@H]1Cn2nc(O[C@H]3CC[C@](C)(O)CC3)cc2-c2onc([C@@](C)(O)C(F)(F)F)c21", "note": "(racemic) [Example 37]", "IC50": 17.2},
      {"smiles": "C[C@H]1Cn2nc(C34CCC(CO)(CC3)CC4)cc2-c2cnc([C@@](C)(O)C(F)(F)F)n21", "note": "[Example 69]", "IC50": 18},
      {"smiles": "C[C@H]1Cn2nc(OCCF)cc2-c2cnc([C@@](C)(O)C(F)(F)F)n21", "note": "[Example 66]", "IC50": 13.7},
      {"smiles": "C[C@H]1Cn2nc(C34CC(CO)(C3)C4)cc2-c2cnc([C@@](C)(O)C(F)(F)F)n21", "note": "[Example 70]", "IC50": 21.2},
      {"smiles": "C[C@H]1Cc2nn(C3CC3)cc2-c2onc([C@@](C)(O)C(F)(F)F)c21", "note": "[Example 19]", "IC50": 13.8},
      {"smiles": "C[C@H]1Cn2nc(C34CCC(C#N)(CC3)C4)cc2-c2cnc([C@@](C)(O)C(F)(F)F)n21", "note": "[Example 86, 4-((S)-5-methyl-3-((R)-1,1,1-trifluoro-2-hydroxypropan-2-yl)-5,6-dihydroimidazo[1,5-a]pyrazolo[5,1-c]pyrazin-9-yl)bicyclo[2.2.1]heptane-1-carbonitrile]", "IC50": 14.1},
      {"smiles": "C[C@H]1Cc2nn(C)cc2-c2onc([C@@](C)(O)C(F)(F)F)c21", "note": "(racemic) [Example 23]", "IC50": 18.8},
      {"smiles": "COC(=O)C12CCC(c3nnc4n3C[C@H](C)c3c([C@@](C)(O)C(F)(F)F)noc3-4)(CC1)CC2", "note": "[Example 11]", "IC50": 6.6},
      {"smiles": "C[C@H]1Cn2nc(O[C@H]3CCOC3)cc2-c2onc([C@@](C)(O)C(F)(F)F)c21", "note": "(racemic) [Example 36]", "IC50": 14},
      {"smiles": "C[C@H]1Cn2nc(C34CCC(C#N)(CC3)OC4)cc2-c2cnc([C@@](C)(O)C(F)(F)F)n21", "note": "[Example 88, 4-((S)-5-methyl-3-((R)-1,1,1-trifluoro-2-hydroxypropan-2-yl)-5,6-dihydroimidazo[1,5-a]pyrazolo[5,1-c]pyrazin-9-yl)-2-oxabicyclo[2.2.2]octane-1-carbonitrile]", "IC50": 23.8},
      {"smiles": "C[C@H]1Cn2c(nnc2C2(F)CC2)-c2onc([C@@](C)(O)C(F)(F)F)c21", "note": "[Example 8]", "IC50": 11.7},
      {"smiles": "C[C@H]1Cn2nc(OC3CCOCC3)cc2-c2onc([C@@](C)(O)C(F)(F)F)c21", "note": "[Example 59, (R)-1,1,1-trifluoro-2-((R)-4-methyl-8-((tetrahydro-2H-pyran-4-yl)oxy)-4,5-dihydroisoxazolo[5,4-c]pyrazolo[1,5-a]pyridin-3-yl)propan-2-ol]", "IC50": 7.1},
      {"smiles": "C[C@H]1Cn2nc(C34CCC(C#N)(C3)C4)cc2-c2cnc([C@@](C)(O)C(F)(F)F)n21", "note": "[Example 91, 4-((S)-5-methyl-3-((R)-1,1,1-trifluoro-2-hydroxypropan-2-yl)-5,6-dihydroimidazo[1,5-a]pyrazolo[5,1-c]pyrazin-9-yl)bicyclo[2.1.1]hexane-1-carbonitrile]", "IC50": 23.3},
      {"smiles": "C[C@H]1Cn2nc(C34CCC(C(C)(C)O)(CC3)CC4)cc2-c2cnc([C@@](C)(O)C(F)(F)F)n21", "note": "[Example 75]", "IC50": 10},
      {"smiles": "COC(=O)C12CC(c3nnc4n3C[C@H](C)c3c([C@@](C)(O)C(F)(F)F)noc3-4)(C1)C2", "note": "[Example 10]", "IC50": 9.4},
      {"smiles": "Cc1nnc2n1C[C@H](C)c1c([C@@](C)(O)C(F)(F)F)noc1-2", "note": "[Example 6]", "IC50": 11.7},
      {"smiles": "C[C@H]1Cc2c(cnn2CCC(C)(C)O)-c2onc([C@@](C)(O)C(F)(F)F)c21", "note": "[Example 40]", "IC50": 5.8},
      {"smiles": "C[C@H]1Cn2nccc2-c2onc([C@@](C)(O)C(F)(F)F)c21", "note": "[Example 60, (R)-1,1,1-trifluoro-2-((R)-4-methyl-4,5-dihydroisoxazolo[5,4-c]pyrazolo[1,5-a]pyridin-3-yl)propan-2-ol]", "IC50": 6.7},
      {"smiles": "C[C@H]1Cn2nc(OCC(C)(C)O)cc2-c2onc([C@@](C)(O)C(F)(F)F)c21", "note": "[Example 31, (R)-1,1,1-trifluoro-2-((R)-8-(2-hydroxy-2-methylpropoxy)-4-methyl-4,5-dihydroisoxazolo[5,4-c]pyrazolo[1,5-a]pyridin-3-yl)propan-2-ol]", "IC50": 13.7},
      {"smiles": "C[C@H]1Cn2nc(C(F)(F)F)cc2-c2cnnc([C@@](C)(O)C(F)(F)F)c21", "note": "[Example 100, (R)-1,1,1-trifluoro-2-((R)-5-methyl-9-(trifluoromethyl)-5,6-dihydropyrazolo[1′,5′:1,2]pyrido[3,4-d]pyridazin-4-yl)propan-2-ol]", "IC50": 11.1},
      {"smiles": "C[C@H]1Cc2c(cnn2C23CC(C#N)(C2)C3)-c2onc([C@@](C)(O)C(F)(F)F)c21", "note": "(racemic) [Example 51]", "IC50": 13.7},
      {"smiles": "COCCOc1cc2n(n1)C[C@@H](C)c1c([C@](C)(O)C(F)(F)F)noc1-2", "note": "[Example 43]", "IC50": 28.2},
      {"smiles": "C[C@H]1Cn2c(nnc2C23CCC(C(C)(C)O)(CC2)CC3)-c2onc([C@@](C)(O)C(F)(F)F)c21", "note": "[Example 12]", "IC50": 6}
    ]},
    {"target": "human PDHK2 (hPDHK2) (Homo sapiens (Human), UniProt Q15119)", "test": "Inhibitory action of PDHK2 activity (PDH/hPDHK2 complex, residual PDH activity by NADH absorbance at 340 nm)", "type": "biochemical", "conditions": "at 100.0 nM, given when the IC50 value could not be calculated; read-out: hPDHK2 inhibitory rate", "description": "as §1, §2, §3, §4, §5, §6, §7", "units": {"inhibition at 0.1 µM": "%"}, "values": [
      {"smiles": "COC(=O)C12CCC(c3cc4n(n3)C[C@H](C)c3c-4cnnc3[C@@](C)(O)C(F)(F)F)(CC1)CC2", "note": "(racemic) [Example 102, methyl 4-[(R)-5-methyl-4-((R)-1,1,1-trifluoro-2-hydroxypropan-2-yl)-5,6-dihydropyrazolo[1′,5′:1,2]pyrido[3,4-d]pyridazin-9-yl]bicyclo[2.2.2]octane-1-carboxylate and methyl 4-[(S)-5-methyl-4-((S)-1,1,1-trifluoro-2-hydroxypropan-2-yl)-5,6-dihydropyrazolo[1′,5′:1,2]pyrido[3,4-d]pyridazin-9-yl]bicyclo[2.2.2]octane-1-carboxylate]", "inhibition at 0.1 µM": 3}
    ]}
  ]
}
